Where “and” joins values, the source holds several entries; their conditions need not be identical. Equal values may be shown once. Entries after “also recorded” stand apart in the source; their conditions may differ. Non-standard residues stand in square brackets, D forms with d. Residues, ends and D or L forms follow the SMILES beside them. pS = N[C@@H](COP(=O)(O)O)C(=O)O
Tests used:
[1] = Preliminary pharmacokinetic analysis in SD rats
Method: (§8) The drug half-life (t1/2) is calculated by the formula t1/2 = 0.693/k, where k is the elimination rate constant (k = (Inc1-Inc2)/(t2-t1)).

[2] = Cynomolgus monkey toxicity test: urinalysis; type: in vivo
Method: (§1) The test was completed by Suzhou Xishan Zhongke Drugs Research and Development Co., Ltd. (Xishan, Suzhou, China). The study proposal was approved by the Institute Animal Care and Use Committee (IACUC, ID19012912). Cynomolgus monkeys (3-4 years old) were randomly divided into three groups (n = 4 per group, half male and female); and the monkeys were treated with solvent control (Mannitol in saline, 75 mg/kg/d), JP1 (45 mg/kg/day) and JP1 (150 mg/kg/day) for 14 days. The experiment was ended on 15th day and the animals were euthanasia. The relevant clinical parameters were determined on 7th and 13th day, respectively. The observed parameters were including clinical symptoms, weight, food intake, body temperature, ophthalmology, electrocardiogram, blood routine examination, blood biochemistry, blood coagulation, urinalysis, immunotoxicity.
(§2) Supplementary database files: Cynomolgus monkey toxicity test […]
(§3) The study was conducted by a contract service in Suzhou Xishan Zhongke Drugs Research and Development Co., Ltd. (Xishan, Suzhou, China). All the use of animals were approved by the Institute Animal Care and Use Commttee, IACUC. IACUC no. :
(§4) ID19012912. The veterinarian will supervise the breeding and welfare of the animals. The company follows the Guide for the Care and Use of Laboratory Animals (8th ed., 2011).
(§5) Cynomolgus monkeys (3-4 years old) were randomly divided into three groups (n = 4 per group, two males and two females for each group); and treated q.d./i.v. with Mannitol (75 mg/kg/d in saline), JP1 (45 mg/kg/d) and JP1 (150 mg/kg/d) for 14 days, respectively. JP1 was dissolved in saline (100 mg/2 ml) and administered intravenously at a rate of 3 ml/min.
The JP1 was provided by Hybio Pharmaceutical Co., Ltd. (Shenzhen, China); the production of small packaging preparation (100 mg/vial in freeze-dried powder, purity > 98%; -20 °C for storage and transportation) was completed under strict GMP conditions and quality control procedures for biological preparations. No recovery period was set for this test; the experimental model was ended on 15th day. The relevant clinical indicators including symptoms, body weight, food intake, temperature, ophthalmology, electrocardiogram, blood routine examination, blood biochemistry, blood coagulation, urinalysis, immunotoxicity were determined on 7th and 13th, respectively. […]
indicators in all animals, and the pathological observation of organs was not determined. […]
(§6) relevant clinical indicators in two JP1 groups were no difference compared with those in […]
(§7) Level (NOAEL) of JP1 was 150 mg/kg.

LD50 in mouse = details: in vivo
in vivo = details: male, Sprague-Dawley, rat, ip, 100 mg/kg, half-life (t1/2)
Method: as §8

[3] = Cynomolgus monkey toxicity test: body weight; type: in vivo
Method: as §1, §2, §3, §4, §5
The JP1 was provided by Hybio Pharmaceutical Co., Ltd. (Shenzhen, China); the production of small packaging preparation (100 mg/vial in freeze-dried powder, purity > 98%; -20 °C for storage and transportation) was completed under strict GMP conditions and quality control procedures for biological preparations. No recovery period was set for this test; the experimental model was ended on 15th day. […]
as §6, §7

[4] = male, Sprague-Dawley, rat, blood, ip, 100 mg/kg
[5] = JP1 45 mg/kg/d i.v., D7, monkeys 1105,1106,2107,2108
[6] = JP1 45 mg/kg/d i.v., D7, monkeys 1105,1106,2107,2108, 45 mg/kg/day
[7] = JP1 45 mg/kg/d i.v., D13, monkeys 1105,1106,2107,2108
[8] = JP1 45 mg/kg/d i.v., D13, monkeys 1105,1106,2107,2108, 45 mg/kg/day
[9] = JP1 150 mg/kg/d i.v., D7, monkeys 1209,1210,2211,2212
[10] = JP1 150 mg/kg/d i.v., D7, monkeys 1209,1210,2211,2212, 150 mg/kg/day
[11] = JP1 150 mg/kg/d i.v., D13, monkeys 1209,1210,2211,2212
[12] = JP1 150 mg/kg/d i.v., D13, monkeys 1209,1210,2211,2212, 150 mg/kg/day

CC(=O)N[C@@H](Cc1ccccc1)C(=O)N1CCC[C@H]1C(=O)NCC(=O)N[C@@H](COP(=O)(O)O)C(=O)N[C@@H](CC(=O)O)C(=O)N[C@@H](CCCNC(=N)N)C(=O)N[C@@H](Cc1ccccc1)C(=O)NCC(=O)NCC(=O)NCC(=O)NCC(=O)N[C@@H](CCCNC(=N)N)C(=O)NCC(=O)N[C@@H](CC(=O)O)C(N)=O [JP1] (Ac-FPG[pS]DRFGGGGRGD-NH2)
elimination rate constant k ([1]; SD rats, 100 mg/kg i.p., from 0.25 h and 1 h concentrations): 0.526 | level at 0.25 h [1, 4]: 20500 ng/mL | level at 1 h [1, 4]: 13800 ng/mL | GLU (urine) [2, 5]: NORMAL | URO (Urobilinogen) [2, 5]: NORMAL | COL (urine) [2, 6]: COLORLESS; also recorded: YELLOW | SG (Urine specific gravity) [2, 6]: 1.004 and 1.005 and 1.008 and 1.012 | pH (urine) [2, 6]: 8.0 and 8.5 | COL (urine) [2, 7]: COLORLESS | GLU (urine) [2, 7]: NORMAL | URO (Urobilinogen) [2, 7]: NORMAL | SG (Urine specific gravity) [2, 8]: 1.006 and 1.007 and 1.009 | pH (urine) [2, 8]: 7.5 and 8.0 and 8.5 | GLU (urine) [2, 9]: NORMAL | URO (Urobilinogen) [2, 9]: NORMAL | COL (urine) [2, 10]: LIGHT YELLOW; also recorded: COLORLESS | SG (Urine specific gravity) [2, 10]: 1.002 and 1.009 and 1.020 and 1.006 | pH (urine) [2, 10]: 7.5 and 8.5 | GLU (urine) [2, 11]: NORMAL | LEU (Urine leukocyte) [2, 11]: NEG. | URO (Urobilinogen) [2, 11]: NORMAL | COL (urine) [2, 12]: COLORLESS; also recorded: LIGHT YELLOW | SG (Urine specific gravity) [2, 12]: 1.004 and 1.013 and 1.005 and 1.009 | pH (urine) [2, 12]: 8.0 and 8.5 and 7.5 | LD50 (LD50 in mouse): > 5000 mg/kg | half-life (in vivo): ~1.32 h | Body weight [3, 6]: 2.1 kg and 2.2 kg and 2.3 kg | Body weight ([3]; JP1 45 mg/kg/d i.v., D14, monkeys 1105,1106,2107,2108, 45 mg/kg/day): 2.5 kg and 2.4 kg | Body weight [3, 10]: 2.4 kg and 2.2 kg and 2.3 kg | Body weight ([3]; JP1 150 mg/kg/d i.v., D14, monkeys 1209,1210,2211,2212, 150 mg/kg/day): 2.2 kg and 2.3 kg and 2.6 kg

From paper PMC7381750, “JP1 suppresses proliferation and metastasis of melanoma through MEK1/2 mediated NEDD4L-SP1-Integrin αvβ3 signaling” (Theranostics, 2020)
